# Assay results published in publication PMC10482691, “LTP induction by structural rather than enzymatic functions of CaMKII” (Nature, 2023).
# Where “and” joins values, the source holds several entries; their conditions need not be identical. Identical values can stand only once.
# What was measured:
# PAK2(h) = PAK2(h) (Homo sapiens, UniProt Q13177); assay: Kinase selectivity panel (residual activity at 1 μM); format: biochemical; conditions: inhibitor at 1 μM; read-out: residual kinase activity in % of maximal activity
# PAK2(h), sequence (Q13177 whole entry): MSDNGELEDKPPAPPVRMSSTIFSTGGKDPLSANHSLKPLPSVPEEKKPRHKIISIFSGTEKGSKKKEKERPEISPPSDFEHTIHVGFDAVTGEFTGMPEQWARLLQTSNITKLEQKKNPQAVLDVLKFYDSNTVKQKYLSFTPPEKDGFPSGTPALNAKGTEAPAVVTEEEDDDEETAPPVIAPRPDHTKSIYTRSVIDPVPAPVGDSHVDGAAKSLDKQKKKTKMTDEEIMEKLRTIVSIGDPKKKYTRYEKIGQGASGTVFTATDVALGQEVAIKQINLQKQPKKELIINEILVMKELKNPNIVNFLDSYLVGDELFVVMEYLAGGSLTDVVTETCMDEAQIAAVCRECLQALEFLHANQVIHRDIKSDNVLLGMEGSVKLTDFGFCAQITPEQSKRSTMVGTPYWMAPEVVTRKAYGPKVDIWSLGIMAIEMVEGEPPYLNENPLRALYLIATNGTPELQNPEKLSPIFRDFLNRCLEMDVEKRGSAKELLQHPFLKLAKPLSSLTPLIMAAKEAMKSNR
# PKBγ(h) = PKBγ(h) (Homo sapiens, UniProt Q9Y243); assay: as above; format: biochemical; conditions: inhibitor at 1 μM; read-out: residual kinase activity in % of maximal activity
# PKBγ(h), sequence (Q9Y243 whole entry): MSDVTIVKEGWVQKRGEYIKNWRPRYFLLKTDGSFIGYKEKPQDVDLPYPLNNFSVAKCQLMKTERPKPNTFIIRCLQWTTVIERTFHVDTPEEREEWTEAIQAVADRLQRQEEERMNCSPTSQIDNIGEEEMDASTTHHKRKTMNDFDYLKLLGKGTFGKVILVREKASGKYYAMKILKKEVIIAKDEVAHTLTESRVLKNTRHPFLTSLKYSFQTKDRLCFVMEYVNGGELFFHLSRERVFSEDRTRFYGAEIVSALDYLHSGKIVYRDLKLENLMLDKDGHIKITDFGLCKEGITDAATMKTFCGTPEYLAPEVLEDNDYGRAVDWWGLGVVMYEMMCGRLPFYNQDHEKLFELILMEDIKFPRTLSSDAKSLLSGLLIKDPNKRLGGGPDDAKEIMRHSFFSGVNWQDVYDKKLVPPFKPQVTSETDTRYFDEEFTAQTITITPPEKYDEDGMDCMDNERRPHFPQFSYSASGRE
# [1] = system: GFP–paCaMKII T286A in hippocampal neurons; assay: paCaMKII T286A photoactivation: synaptic enrichment in hippocampal neurons; format: cell-based
# Method: Neurons were wrapped in aluminium foil immediately following transfection and only exposed to red light in imaging. One image was then taken of each neuron to serve as a pre-photoactivation baseline. Immediately following this baseline image, paCaMKII was globally photoactivated with a 405 nm laser pulse (100 ms exposure, 75% laser power) once every 10 s for a total of 60 s. Neurons were then imaged 15 min after stimulation and assessed for CaMKII synaptic enrichment and dendritic spine growth.
# Neuronal cultures were transfected on DIV 15–18 and imaged 24–48 h later. […] Two-dimensional maximum-intensity projection images were then generated and analysed using a custom-build programme in ImageJ. The programme utilizes combinatorial thresholding to mask regions of the cell that contain high-intensity puncta of postsynaptic density protein 95 (PSD95; a marker of the post-synaptic side of excitatory synapses in dendritic spines) and regions of the dendritic shaft that contain no fluorescence intensity of PSD95. As a measure of synaptic enrichment, the ratio of mean CaMKII fluorescence intensity of the PSD95 mask to the mean CaMKII fluorescence intensity in the dendritic shaft mask is measured. Spine growth was assessed by measuring the changes in mCherry cell fill fluorescence intensity within dendritic spine divided by the initial fluorescence intensity (F/F0).
# PDK1(h) = PDK1(h) (Homo sapiens, UniProt O15530); assay: Kinase selectivity panel (residual activity at 1 μM); format: biochemical; conditions: inhibitor at 1 μM; read-out: residual kinase activity in % of maximal activity
# PDK1(h), sequence (O15530 whole entry): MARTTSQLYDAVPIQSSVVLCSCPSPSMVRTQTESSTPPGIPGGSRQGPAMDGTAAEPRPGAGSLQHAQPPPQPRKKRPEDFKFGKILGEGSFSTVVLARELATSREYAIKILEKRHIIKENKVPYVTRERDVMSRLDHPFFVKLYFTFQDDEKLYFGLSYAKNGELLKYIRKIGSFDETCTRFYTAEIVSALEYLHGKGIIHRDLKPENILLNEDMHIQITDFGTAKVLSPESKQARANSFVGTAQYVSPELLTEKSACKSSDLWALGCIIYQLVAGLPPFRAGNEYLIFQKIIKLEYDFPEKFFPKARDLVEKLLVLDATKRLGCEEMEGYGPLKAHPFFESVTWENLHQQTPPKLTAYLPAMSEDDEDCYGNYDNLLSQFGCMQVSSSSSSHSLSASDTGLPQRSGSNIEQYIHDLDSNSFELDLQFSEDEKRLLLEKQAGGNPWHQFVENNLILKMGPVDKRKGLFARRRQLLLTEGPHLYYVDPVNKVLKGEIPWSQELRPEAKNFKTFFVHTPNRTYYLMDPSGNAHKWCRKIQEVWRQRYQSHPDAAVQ
# purified CaMKII = purified CaMKII (Rattus norvegicus, UniProt P11275); assay: In vitro kinase reaction: CaMKII phosphorylation of GST-2BC (GluN2B) S1303; format: biochemical
# Method: CaMKII-mediated phosphorylation of GluA1 S831 or GluN2B S1303 was measured by in vitro kinase reaction with a purified GST–GluA1 C-terminal tail or GST-GluN2B C-terminal tail. Reactions contained 40 nM CaMKII, 1 μM GST–GluA1, 50 mM PIPES, pH 7.1, 2 mM CaCl2, 10 mM MgCl2, 1 μM calmodulin, 1–4 mM ATP and 1 μM okadaic acid. Negative controls were prepared without ATP. Reactions were done at 30 °C for 20 s; reactions were stopped by adding SDS loading buffer and incubation in a boiling water bath for 5 min. GST, phospho-S831, CaMKII, phospho-T286 or phospho-S1303 were detected in the samples by immunoblot analysis.
# Extended Data Fig. 3 No difference in LTP in WT mice when CaMKII is inhibited by either 10 or 30 μM AS283. Data are presented as mean values +/− SEM. a, 2x HFS potentiates the CA3-CA1 Schaffer collateral pathway in WT mice when CaMKII enzymatic activity is inhibited by 10 or 30 μM AS283 (incubated for 15 min prior to HFS, and washed out 5 min after). b, Quantification of LTP in WT mice after 10 or 30 μM AS283 (n = 3,7 hippocampal slices; Mann-Whitney test). p = 0.3833. c, Representative immunoblot and quantification of CaMKII T286 phosphorylation in dissociated hippocampal cultures after cLTP and inhibition by 10 μM AS283 (n = 4 independent cell preparations; one-way ANOVA, Tukey’s multiple comparisons test). […]
# [2] = molecular target: PI3 Kinase (p110a/p85a)(h) (Homo sapiens, UniProt P42336); assay: Kinase selectivity panel (residual activity at 1 μM); format: biochemical; conditions: inhibitor at 1 μM; read-out: residual kinase activity in % of maximal activity
# ROCK-II(h) = ROCK-II(h) (Homo sapiens, UniProt O75116); assay: as above; format: biochemical; conditions: inhibitor at 1 μM; read-out: residual kinase activity in % of maximal activity
# ROCK-II(h), sequence (O75116 whole entry): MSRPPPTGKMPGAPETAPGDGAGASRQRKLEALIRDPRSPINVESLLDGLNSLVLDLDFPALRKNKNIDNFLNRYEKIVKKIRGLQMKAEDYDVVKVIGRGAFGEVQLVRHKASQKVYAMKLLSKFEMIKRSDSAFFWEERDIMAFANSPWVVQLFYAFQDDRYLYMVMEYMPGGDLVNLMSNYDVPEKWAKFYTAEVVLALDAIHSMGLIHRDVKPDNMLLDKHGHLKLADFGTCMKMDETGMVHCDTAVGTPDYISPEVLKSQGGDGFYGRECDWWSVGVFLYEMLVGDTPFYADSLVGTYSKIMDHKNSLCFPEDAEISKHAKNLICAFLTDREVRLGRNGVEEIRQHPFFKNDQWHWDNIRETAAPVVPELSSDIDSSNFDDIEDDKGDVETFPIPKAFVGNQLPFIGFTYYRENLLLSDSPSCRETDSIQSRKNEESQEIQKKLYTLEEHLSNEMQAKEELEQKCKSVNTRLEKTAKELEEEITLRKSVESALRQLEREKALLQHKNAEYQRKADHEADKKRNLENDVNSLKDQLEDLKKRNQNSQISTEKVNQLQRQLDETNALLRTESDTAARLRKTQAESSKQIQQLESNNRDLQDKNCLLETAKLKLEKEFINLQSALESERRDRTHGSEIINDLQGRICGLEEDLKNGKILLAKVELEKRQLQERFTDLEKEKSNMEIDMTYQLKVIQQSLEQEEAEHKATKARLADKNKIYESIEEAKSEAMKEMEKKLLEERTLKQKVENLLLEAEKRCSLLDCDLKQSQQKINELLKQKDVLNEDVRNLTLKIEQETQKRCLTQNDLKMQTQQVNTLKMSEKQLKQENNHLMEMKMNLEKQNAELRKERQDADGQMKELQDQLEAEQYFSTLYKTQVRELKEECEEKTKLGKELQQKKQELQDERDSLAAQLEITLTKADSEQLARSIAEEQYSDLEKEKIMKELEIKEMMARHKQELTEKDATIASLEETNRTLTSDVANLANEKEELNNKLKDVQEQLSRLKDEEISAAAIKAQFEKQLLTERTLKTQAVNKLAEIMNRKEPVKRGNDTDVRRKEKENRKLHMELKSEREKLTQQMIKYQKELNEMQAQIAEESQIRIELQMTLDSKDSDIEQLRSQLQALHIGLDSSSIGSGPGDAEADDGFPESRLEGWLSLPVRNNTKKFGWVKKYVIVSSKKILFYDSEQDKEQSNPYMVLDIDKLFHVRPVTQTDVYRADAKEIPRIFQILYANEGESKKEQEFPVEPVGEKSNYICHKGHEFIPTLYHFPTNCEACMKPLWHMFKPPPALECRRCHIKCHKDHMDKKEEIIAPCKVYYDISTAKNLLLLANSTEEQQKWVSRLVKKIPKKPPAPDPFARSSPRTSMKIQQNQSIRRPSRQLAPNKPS
# JAK3(h) = JAK3(h) (Homo sapiens, UniProt P52333); assay: as above; format: biochemical; conditions: inhibitor at 1 μM; read-out: residual kinase activity in % of maximal activity
# mTOR(h) = mTOR(h) (Homo sapiens, UniProt P42345); assay: as above; format: biochemical; conditions: inhibitor at 1 μM; read-out: residual kinase activity in % of maximal activity
# JAK2(h) = JAK2(h) (Homo sapiens, UniProt O60674); assay: as above; format: biochemical; conditions: inhibitor at 1 μM
# JAK2(h), sequence (O60674 whole entry): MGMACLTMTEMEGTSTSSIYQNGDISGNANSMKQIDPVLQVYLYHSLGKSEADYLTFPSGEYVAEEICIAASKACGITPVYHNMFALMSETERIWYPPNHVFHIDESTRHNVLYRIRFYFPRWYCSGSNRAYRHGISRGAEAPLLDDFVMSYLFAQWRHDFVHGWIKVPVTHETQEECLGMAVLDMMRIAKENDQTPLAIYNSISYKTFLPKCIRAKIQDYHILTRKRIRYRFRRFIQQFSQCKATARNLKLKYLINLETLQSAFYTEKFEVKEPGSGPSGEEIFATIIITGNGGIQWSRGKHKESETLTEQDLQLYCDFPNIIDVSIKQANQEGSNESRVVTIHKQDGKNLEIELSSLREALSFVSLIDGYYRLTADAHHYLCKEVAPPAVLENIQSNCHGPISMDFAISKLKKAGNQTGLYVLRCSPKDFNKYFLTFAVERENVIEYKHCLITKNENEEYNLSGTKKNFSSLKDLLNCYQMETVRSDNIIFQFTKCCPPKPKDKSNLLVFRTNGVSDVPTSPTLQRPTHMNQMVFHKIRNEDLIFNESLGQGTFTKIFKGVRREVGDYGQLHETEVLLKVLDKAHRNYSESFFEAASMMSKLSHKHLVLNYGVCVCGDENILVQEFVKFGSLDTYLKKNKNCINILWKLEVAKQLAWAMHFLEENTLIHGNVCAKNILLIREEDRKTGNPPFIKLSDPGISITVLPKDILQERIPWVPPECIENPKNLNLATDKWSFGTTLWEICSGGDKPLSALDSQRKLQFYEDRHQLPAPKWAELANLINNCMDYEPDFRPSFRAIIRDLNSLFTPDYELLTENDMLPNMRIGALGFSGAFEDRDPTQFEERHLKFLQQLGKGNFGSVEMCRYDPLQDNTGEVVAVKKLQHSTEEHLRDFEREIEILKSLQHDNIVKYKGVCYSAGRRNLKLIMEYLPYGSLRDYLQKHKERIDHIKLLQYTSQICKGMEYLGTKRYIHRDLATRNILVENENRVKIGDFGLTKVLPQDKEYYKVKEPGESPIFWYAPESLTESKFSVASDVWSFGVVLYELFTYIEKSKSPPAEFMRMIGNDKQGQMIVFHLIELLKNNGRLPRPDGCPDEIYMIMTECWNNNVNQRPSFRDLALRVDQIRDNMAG
# cKit(h) = cKit(h) (Homo sapiens, UniProt P10721); assay: as above; format: biochemical; conditions: inhibitor at 1 μM; read-out: residual kinase activity in % of maximal activity
# cKit(h), sequence (P10721 26-976): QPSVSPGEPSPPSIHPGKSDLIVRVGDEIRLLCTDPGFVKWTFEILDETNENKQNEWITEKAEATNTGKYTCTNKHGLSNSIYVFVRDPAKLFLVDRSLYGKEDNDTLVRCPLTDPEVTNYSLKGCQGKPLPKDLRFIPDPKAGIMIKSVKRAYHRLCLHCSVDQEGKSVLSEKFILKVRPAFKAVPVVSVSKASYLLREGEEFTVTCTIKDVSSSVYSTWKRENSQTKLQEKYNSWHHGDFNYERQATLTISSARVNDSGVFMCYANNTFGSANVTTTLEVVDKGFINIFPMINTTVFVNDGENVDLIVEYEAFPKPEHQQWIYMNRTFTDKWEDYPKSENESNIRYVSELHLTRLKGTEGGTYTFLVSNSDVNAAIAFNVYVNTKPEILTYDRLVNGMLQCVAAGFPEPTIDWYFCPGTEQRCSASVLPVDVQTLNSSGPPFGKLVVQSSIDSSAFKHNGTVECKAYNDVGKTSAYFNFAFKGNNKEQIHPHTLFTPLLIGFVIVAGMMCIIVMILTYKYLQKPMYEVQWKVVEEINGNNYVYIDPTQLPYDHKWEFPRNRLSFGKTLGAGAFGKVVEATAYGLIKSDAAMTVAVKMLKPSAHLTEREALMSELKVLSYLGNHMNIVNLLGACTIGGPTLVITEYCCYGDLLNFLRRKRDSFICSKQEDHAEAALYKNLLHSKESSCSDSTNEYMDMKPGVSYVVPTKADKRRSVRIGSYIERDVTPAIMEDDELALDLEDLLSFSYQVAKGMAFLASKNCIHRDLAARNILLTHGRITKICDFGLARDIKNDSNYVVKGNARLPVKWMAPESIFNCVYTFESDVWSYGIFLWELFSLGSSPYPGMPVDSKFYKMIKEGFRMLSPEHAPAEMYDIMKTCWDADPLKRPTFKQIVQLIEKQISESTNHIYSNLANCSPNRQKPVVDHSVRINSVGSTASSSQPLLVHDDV
# [3] = molecular target: purified CaMKIIα binding to GST–GluN2B-c WT (Homo sapiens, UniProt Q9UQM7); assay: CaMKII binding to immobilized GST–GluN2B-c in vitro; conditions: for bound CaMKIIα (immunoblot, relative): Ca2+/CaM
# Method: CaMKII–GluN2B binding assays were done as described[9],[13],[25]. Briefly, GST–GluN2B-c tail (GST–2BC) was immobilized on anti-GST antibody-coated microtiter plates (Thermo Scientific), blocked for 30 min with 5% BSA and then overlaid with […] CaMKII (subunit concentration) in PIPES-buffered saline (pH 7.2) containing 2 mM Ca^2+, 1 μM CaM, 1 mM Mg^2+, 0.1% BSA and 0.1% Tween-20 for 20 min at room temperature. […] After extensive washes in buffer containing 1 mM EGTA, GST–2BC and bound CaMKII were eluted for 10 min in SDS loading buffer at 95 °C. Bound CaMKII was measured via immunoblot.
structure (smiles),measurement,setting,value
NCCNc1cccc(-c2ccnc3[nH]c4ccccc4c23)c1 [AS283],remaining activity at 1 µM,PAK2(h),76%
same,remaining activity at 1 µM,PKBγ(h),42%
same,CaMKII movement after photoactivation of paCaMKII T286A,[1]; AS283 10 μM,robust CaMKII movement
same,synaptic enrichment after photoactivation (sheet 6b),"[1]; paCaMKII T286A + AS283, individual neurons",1.441 and 1.27 and 1.593 and 1.399 and 1.769 and 1.014 and 1.25 and 1.28 and 1.281 and 1.778
same,remaining activity at 1 µM,PDK1(h),78%
same,"GluN2B S1303 phosphorylation (immunoblot, normalized)","purified CaMKII; ATP + 10 μM AS283, 30 °C",25.6775% and 36.949% and 34.6383% and 24.0932%
same,effect on CaMKII-mediated S1303 phosphorylation,purified CaMKII; WT GluN2B C terminus,inhibited
same,remaining activity at 1 µM,[2],100%
same,remaining activity at 1 µM,ROCK-II(h),77%
same,remaining activity at 1 µM,JAK3(h),92%
same,remaining activity at 1 µM,mTOR(h),115%
same,residual kinase activity in % of maximal activity,JAK2(h),121%
same,remaining activity at 1 µM,cKit(h),50%
same,effect on CaMKII binding to GluN2B in vitro,[3]; 10 μM AS283 in the presence of ADP,did not inhibit
same,Ca2+/CaM-induced CaMKII binding when ATP was substituted with AS283,[3]; AS283 versus ATP,significantly enhanced
same,"bound CaMKIIα (immunoblot, relative)","[3]; 10 μM AS283, no nucleotide, GST–GluN2B-c WT",7.5135 and 8.574 and 8.878 and 7.419
same,"bound CaMKIIα (immunoblot, relative)",[3]; 1 mM ADP with 10 μM AS283,1.196 and 1.2737 and 1.086 and 1.094
